From ChEMBL document CHEMBL3091374, “New synthetic enediynes and their conjugates may provide effective treatment for cancer” (ACS Med Chem Lett, 2013)

Columns and labels:
[1] = Antiproliferative activity against human 786-O cells assessed as ATP level after 72 hrs by CellTiter-Glo assay; format: functional, cell-based; details: 786-0, 72 h
[2] = test system: NCI-H226; assay: Antiproliferative activity against human NCI-H226 cells assessed as ATP level after 72 hrs by CellTiter-Glo assay; format: functional, cell-based; details: NCI-H226, 72 h

SMILES	EC50 [1]	EC50 [2]
C[C@@H](O)[C@@]12O[C@]13c1cc(O)c4c(c1N[C@H]2C#C/C=C\C#C[C@H]3O)C(=O)c1ccc(NCCN)cc1C4=O	1280 pM	986 pM
C[C@@H](O)[C@@]12O[C@]13c1cc(O)c4c(c1N[C@H]2C#C/C=C\C#C[C@H]3O)C(=O)c1ccc(NC(=O)c2ccc(N)cc2)cc1C4=O	58 pM	873 pM
